Reference: US7022716B2, “Cyclic amine phenyl beta-3 adrenergic receptor agonists” (Wyeth, priority 2000, dated 2006)

Biological target: T1, human β3 adrenergic receptor (Homo sapiens, UniProt P13945)
T1 construct: Full length β3 AR clones (402 amino acids) containing the last 6 amino acids of hβ3-AR are prepared; expressed in transfected cells; host or cells: CHO (Chinese hamster ovary) cells
Experiment: cAMP (SPA) response in CHO cells transfected with human β3 adrenergic receptor
Assay type: cell-based
Design: key: fraction of maximal isoproterenol (10^-5 M) response
Conditions: maximal response relative to maximal response of isoproterenol at 10^-5 M
Description: Binding to the receptors was measured in Chinese Hamster ovary (CHO) cells that were transfected with adrenergic receptors.
The corresponding primer sequences are described in Mantzoros, C. […] The four fragments are ligated into a pUC 18 plasmid (Gibco-BRL) and sequenced.
CHO cells were grown in 24-well tissue culture plates in Dulbecco's Modified Eagle Media with 10% fetal bovine serum, MEM non-essential amino acids, Penicillin-Streptompycin and Geneticin. On the day of test procedure, growth medium was replaced with preincubation media (Dulbecco's Modified Eagle, Media) and incubated for 30 minutes at 37° C. […] Test compounds were tested over a concentration range of 10^−9 M to 10^−5 M for β3 cells and 10^−8 to 10^−4 M for β1 and β2 transfected cells. Isoproterenol (10^−5 M) was used as an internal standard for comparison of activity. Cells were incubated at 37° C. on a rocker for 30 min with the β3 cells and 15 min for β1 and β2 cells. Incubation was stopped with the addition of 0.2N HCl and neutralized with 2.5N NaOH. The plates, containing the cells and neutralized media, were stored at −20 degrees celsius until ready to test for cAMP using the SPA test kit (Amersham).
Data Analysis and Results: Data collected from the SPA test procedure were analyzed as percent of the maximal isoproterenol response at 10^−5 M. Activity curves were plotted using the SAS statistical and graphics software.

T1 sequence (P13945 whole entry): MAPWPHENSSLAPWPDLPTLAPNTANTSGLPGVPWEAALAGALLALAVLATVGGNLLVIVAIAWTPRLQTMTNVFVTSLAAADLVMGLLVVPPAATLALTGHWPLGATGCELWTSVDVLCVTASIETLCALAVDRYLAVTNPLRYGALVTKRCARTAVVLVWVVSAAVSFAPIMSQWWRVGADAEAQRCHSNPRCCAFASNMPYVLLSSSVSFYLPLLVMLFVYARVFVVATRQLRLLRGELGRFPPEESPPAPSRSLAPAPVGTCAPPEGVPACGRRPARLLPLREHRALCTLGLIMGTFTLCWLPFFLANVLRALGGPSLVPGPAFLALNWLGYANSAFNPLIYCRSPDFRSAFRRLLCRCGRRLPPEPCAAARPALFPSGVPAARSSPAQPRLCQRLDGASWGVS

Row | Molecule | IA(β3)
1 | COc1cc(C(O)CNC2CCN(c3ccc(NS(=O)(=O)c4ccc(NC(C)=O)cc4)cc3)CC2)ccc1O (stereo not shown) [Example 267, N-(4-{[4-(4-{[2-Hydroxy-2-(4-hydroxy-3-methoxyphenyl)ethyl]amino}-1-piperidinyl)anilino]sulfonyl}phenyl)acetamide] | 0.99
2 | O=[N+]([O-])c1ccc(Oc2c(Cl)cc(S(=O)(=O)Nc3ccc(N4CCC(NCC(O)c5cccc(O)c5)CC4)cc3)cc2Cl)c(Cl)c1 (stereo not shown) [Example 354, 3,5-Dichloro-4-(2-chloro-4-nitrophenoxy)-N-[4-(4-{[2-hydroxy-2-(3-hydroxyphenyl)-ethyl]amino}-1-piperidinyl)phenyl]benzenesulfonamide] | 0.73
3 | CCCCS(=O)(=O)N(CC(=O)OCc1ccccc1)c1ccc(N2CCC(NC[C@H](O)c3ccc(O)c(NS(C)(=O)=O)c3)CC2)cc1 [Example 342] | 1
4 | COc1ccc(S(=O)(=O)Nc2ccc(N3CCC(NC[C@H](O)COc4ccc(O)c(NS(C)(=O)=O)c4)CC3)cc2)cc1OC [Example 308, N-(4-{4-[((2S)-2-Hydroxy-3-{4-hydroxy-3-[(methylsulfonyl)amino]phenoxy}propyl)-amino]-1-piperidinyl}phenyl)-4-dimethoxybenzenesulfonamide] | 1.4
5 | CC(=O)Nc1ccc(S(=O)(=O)Nc2ccc(N3CCC(NC[C@H](O)c4ccc(O)c(NS(C)(=O)=O)c4)CC3)cc2)cc1 [Example 291, N-{4-[(4-{4-[((2R)-2-Hydroxy-2-{4-hydroxy-3-[(methylsulfonyl)amino]-phenyl}ethyl)amino]-1-piperidinyl}anilino)sulfonyl]phenyl}acetamide] | 1.07
6 | CS(=O)(=O)Nc1cc([C@@H](O)CNC2CCN(c3ccc(NS(=O)(=O)CC(=O)O)cc3)CC2)ccc1O [Example 323, [(4-{4-[((2R)-2-Hydroxy-2-{4-hydroxy-3-[(methylsulfonyl)amino]phenyl}ethyl)amino]-1-piperidinyl}anilino)sulfonyl]acetic acid] | 0.92
7 | CCCCS(=O)(=O)Nc1ccc(N2CCC(NC[C@H](O)COc3ccc(O)c4c3CCC(=O)N4)CC2)cc1 [Example 306, N-{4-[4-({(2S)-2-Hydroxy-3-[(8-hydroxy-2-oxo-1,2,3,4-tetrahydro-5-quinolinyl)oxy]-propyl}amino)-1-piperidinyl]phenyl}-1-butanesulfonamide] | 1.1
8 | COc1ccc(Br)cc1S(=O)(=O)N(c1ccc(N2CCC(NC[C@H](O)COc3cccc4[nH]c(=O)[nH]c34)CC2)cc1)S(=O)(=O)c1cc(Br)ccc1OC [Example 337] | 0.72
9 | CCCCS(=O)(=O)N(CC(=O)OCC)c1ccc(N2CCC(NC[C@H](O)c3ccc(O)c(NS(C)(=O)=O)c3)CC2)cc1 [Example 345] | 1
10 | COc1ccc(S(=O)(=O)Nc2ccc(N3CC(NC[C@H](O)COc4cccc5[nH]c6ccccc6c45)C3)cc2)cc1OC [Example 416, N-[4-(3-{[(2S)-3-(9H-Carbazol-4-yloxy)-2-hydroxypropyl]amino}-1-azetidinyl)phenyl]-3,4-dimethoxybenzenesulfonamide] | 0.48
11 | CC(=O)Nc1ccc(S(=O)(=O)Nc2ccccc2N2CCC(NCC(O)c3cccc(O)c3)CC2)cc1 (stereo not shown) [Example 264, N-(4-{[2-(4-{[2-Hydroxy-2-(3-hydroxyphenyl)ethyl]amino}-1-piperidinyl)anilino]-sulfonyl}phenyl)acetamide] | 0.37
12 | COc1ccc(S(=O)(=O)Nc2ccc(N3CCC(NC[C@H](O)COc4cccc5[nH]c(=O)[nH]c45)CC3)cc2)cc1 [Example 330, N-{4-[4-({(2S)-2-Hydroxy-3-[(2-oxo-2,3-dihydro-1H-benzimidazol-4-yl)oxy]propyl}-amino)-1-piperidinyl]phenyl}-4-methoxybenzenesulfonamide] | 0.98
13 | 5-[4-(4-{[4-(2S)-2-(3-Bromoisoxazol-5-yl)-2-hydroxyethyl]amino}piperidine-1-yl)benzyl]-1,3-thiazolidine-2,4-dione [Example 122] | 0.46
14 | CCCCCCNC(=O)Nc1ccc(S(=O)(=O)Nc2ccc(N3CCC(NC[C@H](O)COc4cccc5[nH]c6ccccc6c45)CC3)cc2)cc1 [Example 290] | 0.72
15 | CC(=O)Nc1ccc(S(=O)(=O)Nc2ccc(N3CCC(NC[C@H](O)c4ccccc4)CC3)cc2)cc1 [Example 258, N-(4-{4-[4-((2R)-2-Hydroxy-2-phenyl-ethylamino)-piperidin-1-yl]-phenylsulfamoyl}-phenyl)-acetamide] | 0.7
16 | CCCCOc1ccc(S(=O)(=O)Nc2ccc(N3CCC(NCC(O)c4ccc(O)c(NS(C)(=O)=O)c4)CC3)cc2)cc1 (stereo not shown) [Example 281, 4-Butoxy-N-(4-{4-[2-hydroxy-2-(4-hydroxy-3-methanesulfonylamino-phenyl)-ethylamino]-piperidin-1-yl}-phenyl)-benzenesulfonamide] | 1.14
17 | O=[N+]([O-])c1ccc(Oc2c(Cl)cc(S(=O)(=O)Nc3ccc(N4CCC(NC[C@H](O)COc5ccccc5)CC4)cc3)cc2Cl)c(Cl)c1 [Example 353, 3,5-Dichloro-4-(2-chloro-4-nitrophenoxy)-N-[4-(4-{[(2S)-2-hydroxy-3-phenoxypropyl]amino}-1-piperidinyl)phenyl]benzenesulfonamide] | 0.97
18 | CCCCOc1ccc(S(=O)(=O)Nc2ccc(N3CCC(NC[C@H](O)COc4cccc5[nH]c(=O)[nH]c45)CC3)cc2)cc1 [Example 358, 4-Butoxy-N-{4-[4-({(2S)-2-hydroxy-3-[(2-oxo-2,3-dihydro-1H-benzimidazol-4-yl)oxy]propyl}amino)-1-piperidinyl]phenyl}benzenesulfonamide] | 1.1
19 | O=S(=O)(Nc1ccc(N2CCC(NC[C@H](O)COc3ccc(O)cc3)CC2)cc1)c1ccc(-c2ccccn2)s1 [Example 293, N-[4-(4-{[(2S)-2-Hydroxy-3-(4-hydroxyphenoxy)propyl]amino}-1-piperidinyl)phenyl]-5-(2-pyridinyl)-2-thiophenesulfonamide] | 0.94
20 | CS(=O)(=O)Nc1cc([C@@H](O)CNC2CCN(c3ccc(NC(=O)CC(=O)O)cc3)CC2)ccc1O [Example 372, 3-(4-{4-[((2R)-2-Hydroxy-2-{4-hydroxy-3-[(methylsulfonyl)amino]phenyl}ethyl)amino]-1-piperidinyl}anilino)-3-oxopropanoic acid] | 1
21 | O=c1[nH]c2cccc(OC[C@@H](O)CNC3CCN(c4ccc(NS(=O)(=O)c5ccc(OC(F)(F)F)cc5)cc4)CC3)c2[nH]1 [Example 329, N-{4-[4-({(2S)-2-Hydroxy-3-[(2-oxo-2,3-dihydro-1H-benzimidazol-4-yl)oxy]propyl}-amino)-1-piperidinyl]phenyl}-4-(trifluoromethoxy)benzenesulfonamide] | 0.9
22 | O=c1[nH]c2cccc(OC[C@@H](O)CNC3CCN(c4ccc(NS(=O)(=O)c5ccc(-c6ccon6)s5)cc4)CC3)c2[nH]1 [Example 287, N-{4-[4-({(2S)-2-Hydroxy-3-[(2-oxo-2,3-dihydro-1H-benzimidazol-4-yl)oxy]propyl}-amino)-1-piperidinyl]phenyl}-5-(3-isoxazolyl)-2-thiophenesulfonamide] | 0.92
23 | O=c1[nH]c2cccc(OC[C@@H](O)CNC3CCN(c4ccc(NS(=O)(=O)c5ccc(Cl)c(Cl)c5)cc4)CC3)c2[nH]1 [Example 327, 3,4-Dichloro-N-{4-[4-({(2S)-2-hydroxy-3-[(2-oxo-2,3-dihydro-1H-benzimidazol-4-yl)oxy]propyl}amino)-1-piperidinyl]phenyl}benzenesulfonamide] | 0.86
24 | O=C(CCl)Nc1ccc(N2CCC(NC[C@H](O)COc3cccc4[nH]c(=O)[nH]c34)CC2)cc1 [Example 382, 2-Chloro-N-{4-[4-({(2S)-2-hydroxy-3-[(2-oxo-2,3-dihydro-1H-benzimidazol-4-yl)oxy]propyl}amino)-1-piperidinyl]phenyl}acetamide] | 0.64
25 | CCCCCCCCS(=O)(=O)Nc1ccc(N2CCC(NCC(O)c3ccc(O)c(NS(C)(=O)=O)c3)CC2)cc1 (stereo not shown) [Example 297, N-(4-{4-[(2-Hydroxy-2-{4-hydroxy-3-[(methylsulfonyl)amino]phenyl}ethyl)amino]-1-piperidinyl}phenyl)-1-octanesulfonamide] | 1
26 | CCCCCCCCS(=O)(=O)Nc1ccc(N2CCC(NC[C@H](O)COc3ccc(O)cc3)CC2)cc1 [Example 304, N-[4-(4-{[(2S)-2-Hydroxy-3-(4-hydroxyphenoxy)propyl]amino}-1-piperidinyl)phenyl]-1-octanesulfonamide] | 0.35
27 | CCCCCCNC(=O)Nc1ccc(S(=O)(=O)Nc2ccc(N3CCC(NC[C@H](O)COc4ccc(O)c(NS(C)(=O)=O)c4)CC3)cc2)cc1 [Example 310] | 1
28 | CS(=O)(=O)Nc1cc(C(O)CNC2CCN(c3ccc(NS(=O)(=O)c4ccc(CC5SC(=O)NC5=O)cc4)cc3)CC2)ccc1O (stereo not shown) [Example 302, 4-[(2,4-Dioxo-1,3-thiazolidin-5-yl)methyl]-N-(4-{4-[(2-hydroxy-2-{4-hydroxy-3-[(methylsulfonyl)amino]phenyl}ethyl)amino]-1-piperidinyl}phenyl)benzenesulfonamide] | 0.95
